Assay [1] has as its system Rattus norvegicus. Description: Antihyperglycemic activity in albino Rattus norvegicus Sprague-Dawley (rat) streptozotocin-induced diabetic model assessed as effect on AUC of blood glucose level at 100 mg/kg, po after 24 hr. The format is functional.
The subject of assay [2] is Rattus norvegicus. Description: Antihyperglycemic activity in albino Rattus norvegicus Sprague-Dawley (rat) streptozotocin-induced diabetic model assessed as effect on AUC of blood glucose level at 100 mg/kg, po after 5 hr. The assay is classed as functional.

Consider `COc1c(-c2ccccc2)oc2c3c(ccc2c1=O)OCC3` [2',3'-DIHYDROKARANJIN], for which the Activity in assay [1] was determined as 9.8%; in assay [2] it was 6.2%.

For the molecule `O=c1c(O)c(-c2ccccc2)oc2c3c(ccc12)OCC3` [2',3'-DIHYDROKARANJONOL], the Activity turned out to be 5.3% in assay [1] and 7% in assay [2].

Regarding `CCN(CC)CC(O)COc1c(-c2ccccc2)oc2c(ccc3occc32)c1=O` (stereo not given) [3-(3-DIETHYLAMINO-2-HYDROXY-PROPYL)-KARANJONOL], the results for the Activity in assay [1] and in assay [2] were -37% and -4.8%, respectively.

Take `O=C(COc1c(-c2ccccc2)oc2c(ccc3occc32)c1=O)c1ccccc1` [3-O-(2-OXO-2-PHENYL-ETHYL)-KARANJONOL]: the Activity in assay [1] was 22.9%; in assay [2] it was 15.4%.

In the case of `C=CCOc1c(-c2ccccc2)oc2c(ccc3occc32)c1=O` [3-O-ALLYLKARANJONOL], the Activity in assay [1] was -16.6%; in assay [2] it was -33%.

On to `CC(C)Oc1c(-c2ccccc2)oc2c(ccc3occc32)c1=O` [3-O-ISOPROPYLKARANJONOL], for which the Activity in assay [1] was -15.4%; in assay [2], -26.9%.

For `CC(=O)OC[C@H]1O[C@@H](Oc2c(-c3ccccc3)oc3c(ccc4occc43)c2=O)[C@H](OC(C)=O)[C@@H](OC(C)=O)[C@@H]1OC(C)=O` [3-OTETRAACETYLGLUCOPYRANOSYLKARANJONOL], the Activity was found to be 0.5% in assay [1] and 9.7% in assay [2].

Turning to `COc1c(-c2ccccc2)oc2c(ccc3occc32)c1=O` [KARANJIN], the Activity was -42.6% in assay [1] and -30.8% in assay [2].

With `O=c1c(O)c(-c2ccccc2)oc2c1ccc1occc12` [KARANJONOL], the Activity in assay [1] is -39%; in assay [2], -37.2%.

On to `CN(C)C(=N)NC(=N)N` [METFORMIN], for which the results for the Activity in assay [1] and in assay [2] were 25% and -26.7%, respectively.
